The results in this text go back to patent US7109193B2, “Tricyclic diazepines tocolytic oxytocin receptor antagonists” (Wyeth, priority 2001, dated 2006).

Molecules are shown by their SMILES.

The target of this test is T1, human vasopressin V1a receptor subtype (Homo sapiens, UniProt P37288).
T1 construct: host or cells: CHO cells (pZeoSV vector for the Thibonnier line)
T1 sequence (P37288 whole entry): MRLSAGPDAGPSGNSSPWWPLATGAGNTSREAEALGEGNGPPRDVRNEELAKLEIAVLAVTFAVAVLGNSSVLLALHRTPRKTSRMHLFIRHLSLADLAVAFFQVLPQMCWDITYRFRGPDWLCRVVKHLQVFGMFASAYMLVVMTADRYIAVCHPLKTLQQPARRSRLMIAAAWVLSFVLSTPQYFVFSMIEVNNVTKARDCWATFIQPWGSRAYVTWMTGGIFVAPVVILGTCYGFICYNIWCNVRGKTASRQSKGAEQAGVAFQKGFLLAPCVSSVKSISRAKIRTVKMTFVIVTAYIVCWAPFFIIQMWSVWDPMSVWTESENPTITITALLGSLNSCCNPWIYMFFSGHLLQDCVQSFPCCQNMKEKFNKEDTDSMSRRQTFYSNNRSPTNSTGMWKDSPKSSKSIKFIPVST
In words: Vasopressin binding in Chinese Hamster Ovary cell membranes expressing human vasopressin V1a subtype receptors. The following applies: 100 nM, CHO cell membranes, [3H]Manning ligand, values without parentheses. The essentials:
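Membranes from CHO cells expressing human V1a receptor were incubated with [3H]Manning ligand (added as 20 μL of 8 nM) in pH 7.4 Tris buffer with MgCl2, BSA and protease inhibitors, 60 min at room temperature. Bound radioactivity was counted after filtration; values are percent inhibition at a stated concentration or IC50.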
As for `C=CCN1CCN(C(=O)c2ccc3n2Cc2ccccc2N(C(=O)c2ccc(-n4c(C)ccc4C)c(OC)c2)C3)CC1` [Example 318, (4-Allyl-1-piperazinyl){10-[4-(2,5-dimethyl-1H-pyrrol-1-yl)-3-methoxybenzoyl]-10,11-dihydro-5H-pyrrolo[2,1-c][1,4]benzodiazepin-3-yl}methanone], the inhibition at 0.1 µM came to 5%.

As for `O=C(c1ccc(-c2ccccc2)nc1)N1Cc2cccn2Cc2ccccc21` [Example 29, (6-Phenyl-pyridin-3-yl)-[10,11-dihydro-5H-pyrrolo[2,1-c][1,4]benzodiazepin-10-yl]methanone], the inhibition at 0.1 µM worked out at 74%.

For the compound `COc1ccccc1-c1ccc(C(=O)N2Cc3ccc(C(=O)N[C@@H]4CN5CCC4CC5)n3Cc3ccccc32)cc1OC` [Example 300, N-[(3S)-1-Azabicyclo[2.2.2]oct-3-yl]-10-[(2,2′-dimethoxy[1,1′-biphenyl]-4-yl)carbonyl]-10,11-dihydro-5H-pyrrolo[2,1-c][1,4]benzodiazepine-3-carboxamide], the inhibition at 0.1 µM was -2%.

For the compound `Cc1cc(C(=O)N2Cc3cccn3Cc3ccccc32)ccc1-c1ccncc1` [Example 31, [3-Methyl-4-(4-pyridinyl)phenyl]-[10,11-dihydro-5H-pyrrolo[2,1-c][1,4]benzodiazepin-10-yl]methanone], the inhibition at 0.1 µM amounted to 30%.

On to `COc1ccccc1-c1ccc(C(=O)N2Cc3ccc(C(=O)N[C@@H](Cc4c[nH]cn4)C(N)=O)n3Cc3ccccc32)cc1OC` [Example 286, N-[(1S)-2-Amino-1-(1H-imidazol-4-ylmethyl)-2-oxoethyl]-10-[(2,2′-dimethoxy[1,1′-biphenyl]-4-yl)carbonyl]-10,11-dihydro-5H-pyrrolo[2,1-c][1,4]benzodiazepine-3-carboxamide], for which the inhibition at 0.1 µM was determined as 8%.

As for `COc1ccccc1-c1ccc(C(=O)N2Cc3ccc(C(=O)N[C@H]4CN5CCC4CC5)n3Cc3ccccc32)cc1OC` [Example 299, N-[(3R)-1-Azabicyclo[2.2.2]oct-3-yl]-10-[(2,2′-dimethoxy[1,1′-biphenyl]-4-yl)carbonyl]-10,11-dihydro-5H-pyrrolo[2,1-c][1,4]benzodiazepine-3-carboxamide], the inhibition at 0.1 µM amounted to 14%.

For `COc1ccccc1-c1ccc(C(=O)N2Cc3ccc(C(=O)N4CCCN(C)CC4)n3Cc3ccccc32)cc1OC` [Example 69, {10-[(2,2′-Dimethoxy[1,1′-biphenyl]-4-yl)carbonyl]-10,11-dihydro-5H-pyrrolo[2,1-c][1,4]benzodiazepin-3-yl}(4-methyl-1,4-diazepan-1-yl)methanone], the inhibition at 0.1 µM is 8%.

In the case of `Cc1cc(C(=O)N2Cc3cccn3Cc3ccccc32)cc(C)c1-n1c(C)ccc1C` [Example 30, [4-(2,5-Dimethyl-1H-pyrrol-1-yl)-3,5-dimethyl-phenyl][10,11-dihydro-5H-pyrrolo[2,1-c][1,4]benzodiazepin-10-yl]methanone], the inhibition at 0.1 µM is 8%.

With `COc1ccccc1-c1ccc(C(=O)N2Cc3ccc(C(=O)N[C@H]4CN5CCC4CC5)n3Cc3ccccc32)cc1C` [Example 298, N-[(3R)-1-Azabicyclo[2.2.2]oct-3-yl]-10-[(2′-methoxy-2-methyl[1,1′-biphenyl]-4-yl)carbonyl]-10,11-dihydro-5H-pyrrolo[2,1-c][1,4]benzodiazepine-3-carboxamide], the inhibition at 0.1 µM is 20%.

Take `COc1ccccc1-c1ccc(C(=O)N2Cc3ccc(C(=O)N[C@@H]4CN5CCC4CC5)n3Cc3ccccc32)cc1C` [Example 295, N-[(3S)-1-Azabicyclo[2.2.2]oct-3-yl]-10-[(2′-methoxy-2-methyl[1,1′-biphenyl]-4-yl)carbonyl]-10,11-dihydro-5H-pyrrolo[2,1-c][1,4]benzodiazepine-3-carboxamide]: the inhibition at 0.1 µM turned out to be 6%.

Turning to `COc1ccccc1-c1ccc(C(=O)N2Cc3ccc(C(=O)N4CCN(C)CC4)n3Cc3ccccc32)cc1C` [Example 49, {10-[(2′-Methoxy-2-methyl[1,1′-biphenyl]-4-yl)carbonyl]-10,11-dihydro-5H-pyrrolo[2,1-c][1,4]benzodiazepin-3-yl}(4-methyl-1-piperazinyl)methanone], the inhibition at 0.1 µM amounted to 5%.

In the case of `COc1cc(C(=O)N2Cc3ccc(C(=O)NCCN4CCCCC4)n3Cc3ccccc32)ccc1-n1c(C)ccc1C` [Example 314, 10-[4-(2,5-Dimethyl-1H-pyrrol-1-yl)-3-methoxybenzoyl]-N-[2-(1-piperidinyl)ethyl]-10,11-dihydro-5H-pyrrolo[2,1-c][1,4]benzodiazepine-3-carboxamide], the inhibition at 0.1 µM came out at 6%.

In the case of `COc1cc(C(=O)N2Cc3ccc(C(=O)N4CCC(N5CCCC5)CC4)n3Cc3ccccc32)ccc1-n1c(C)ccc1C` [Example 313, {10-[4-(2,5-Dimethyl-1H-pyrrol-1-yl)-3-methoxybenzoyl]-10,11-dihydro-5H-pyrrolo[2,1-c][1,4]benzodiazepin-3-yl}[4-(1-pyrrolidinyl)-1-piperidinyl]methanone], the inhibition at 0.1 µM is 2%.

For the compound `COc1cccc(-c2ccc(C(=O)N3Cc4ccc(C(=O)N5CCN(CCCN(C)C)CC5)n4Cc4ccccc43)cc2C)c1` [Example 248, {4-[3-(Dimethylamino)propyl]-1-piperazinyl}{10-[(3′-methoxy-2-methyl[1,1′-biphenyl]-4-yl)carbonyl]-10,11-dihydro-5H-pyrrolo[2,1-c][1,4]benzodiazepin-3-yl}methanone], the inhibition at 0.1 µM is 17%.

As to `Cc1ccccc1-c1ccc(C(=O)N2Cc3ccc(C(=O)N4CCCN(C)CC4)n3Cc3ccccc32)cc1` [Example 65, {10-[(2′-Methyl[1,1′-biphenyl]-4-yl)carbonyl]-10,11-dihydro-5H-pyrrolo[2,1-c][1,4]benzodiazepin-3-yl}(4-methyl-1,4-diazepan-1-yl)methanone], the inhibition at 0.1 µM stood at 40%.

On to `COc1cc(C(=O)N2Cc3ccc(C(=O)NCCCn4ccnc4)n3Cc3ccccc32)ccc1-n1c(C)ccc1C` [Example 312, 10-[4-(2,5-Dimethyl-1H-pyrrol-1-yl)-3-methoxybenzoyl]-N-[3-(1H-imidazol-1-yl)propyl]-10,11-dihydro-5H-pyrrolo[2,1-c][1,4]benzodiazepine-3-carboxamide], for which the inhibition at 0.1 µM was 7%.

Turning to `COc1ccccc1-c1ccc(C(=O)N2Cc3ccc(C(=O)N4CCCN(C)CC4)n3Cc3ccccc32)cc1C` [Example 62, {10-[(2′-Methoxy-2-methyl[1,1′-biphenyl]-4-yl)carbonyl]-10,11-dihydro-5H-pyrrolo[2,1-c][1,4]benzodiazepin-3-yl}(4-methyl-1,4-diazepan-1-yl)methanone], the inhibition at 0.1 µM came out at 10%.

In the case of `Cc1ccccc1-c1ccc(C(=O)N2Cc3ccc(C(=O)N4CCN(CCCN(C)C)CC4)n3Cc3ccccc32)cc1` [Example 249, {4-[3-(Dimethylamino)propyl]-1-piperazinyl}{10-[(2′-methyl[1,1′-biphenyl]-4-yl)carbonyl]-10,11-dihydro-5H-pyrrolo[2,1-c][1,4]benzodiazepin-3-yl}methanone], the inhibition at 0.1 µM came to 12%.

As for `Cc1ccccc1-c1ccc(C(=O)N2Cc3ccc(C(=O)N4CCN(C)CC4)n3Cc3ccccc32)cc1C` [Example 50, {10-[(2,2′-Dimethyl[1,1′-biphenyl]-4-yl)carbonyl]-10,11-dihydro-5H-pyrrolo[2,1-c][1,4]benzodiazepin-3-yl}(4-methyl-1-piperazinyl)methanone], the inhibition at 0.1 µM is 40%.

A word on the inhibition: it is the relative decrease from the control value, in per cent.
